Test results published in patent US20250382588A1, “CHIMERIC AAV AND USES THEREOF” (priority 2023, published 2025).
Entries after “also recorded” stand apart in the source; their conditions may differ.

Legend:
[1] = tested on: parkinsonian macaque model (MPP+); conditions: clinical; cited from earlier work
[2] = tested on: parkinsonian macaque model (MPP+); test: Parkinsonian symptoms in MPP+ macaques (PD score, locomotion, EMG tremor, motor skill, dyskinesia score)
Protocol: Parkinsonian conditions in macaque monkeys were established by unilaterally injecting 1-Methyl-4-phenylpyridinium (MPP+) into the SNc (FIG. 14). […] Drug injections were performed in five sites covering the whole SNc. A total volume of 10 ul MPP+ was injected into SNc at a speed of 50 nL/min. Monkeys were continuously monitored by veterinarians after lesion.
Two experienced observers blindly evaluated parkinsonian symptoms of the monkeys three days per week throughout the observation periods. Parkinsonian symptoms were quantified according to the well-established Kurlan scale (Part I. Parkinsonian features), a widely used scale to quantify PD symptoms in old world monkeys. A score of zero indicates a normal monkey, whereas a maximum score of 29 indicates an animal with severe PD symptoms. For separate behavioral categories, scoring of the upper limb and the lower limb were added together. Additionally, action or intention tremors and resting tremors were added together.
Two experienced observers blindly evaluated dyskinesia symptoms of the monkeys three days per week throughout the observation periods. Dyskinesia score criteria were: 0: Absent. 1: Mild, fleeting, present <30% of the observation period. 2: Moderate, not interfering with normal activity, present >30% of the observation period. 3: Marked, at times interfering with normal activity; present <70% of the observation period.4: Severe, continuous, replacing normal activity, present >70% of the observation.
For parkinsonian monkeys, DCZ (Deschloroclozapine, 0.3 mg/kg, MCE) was administered via intramuscular injection. After DCZ was successfully infused, monkeys were immediately transferred to the observation cage for video recording. […] For long-term DCZ treatment, parkinsonian monkeys were given DCZ at a dose of 0.3 mg/kg every other day via intramuscular injection. […] One month of washout was allowed before administration of DCZ for a 2 months treatment.
A grasp-to-eat/hand-to-mouth movement test was conducted as an indication of motor skills in monkeys. Monkeys were first trained to sit in a primate chair with the healthy hand restricted. Monkeys were then trained to grasp food (a piece of apple, ˜1 cm3) using the MPP+-affected hand from the experimenter. The task contained three blocks, with 20-minute intervals between different blocks. Each block included ten continuous trials. Trials were defined as successful when monkeys were able to bring food to their mouth within a minute.
During video recording, a top (x/y) and a side (x/z) camera were used to record the observation cage. The VigiePrimate system (Viewpoint) was used to analyze the subject's activity and extract movement data from the recorded videos. The tracking data were synchronously sampled at 25 Hz for both top view and side view, and then combined to generate one dataset representing the 3D space. The tracking data were normalized to 0-100 cm for all x-, y-, and z-axes, of which x represents right to left, y represents front to back, and z represents bottom to top.
Customized surface EMG electrodes were used for EMG recordings.

N[C@@H](Cc1ccc(O)c(O)c1)C(=O)O [L-Dopa, levodopa]
standard efficacy window [1]: 6 h | dyskinesia-like behaviors (dyskinesia score) ([2]; long-term treatment): evident; also recorded: pronounced | effect of 4 months prior L-Dopa administration on DCZ treatment ([2]; one month washout): did not affect the efficacy of DCZ treatment or the absence of dyskinesia
